In one test the test system is TNF-α. The test is described as follows: Induction of TNF-α using fresh human PBMCs. The format is cell-based. Conditions: PBMC, 24 hr incubation, relative to 2 μM resiquimod control, read-out: mean pEC50 for induction of TNF-α (converted). How it is done: (§1) Assay for the Induction of Interferon-α and TNF-α Using Fresh Human Peripheral Blood Mononuclear Cells (PBMCs)
(§2) Compounds were dissolved and serially diluted in DMSO to give 100× the required concentration range using a Biomek® 2000. 1 ul of test compound was transferred into 96-well tissue culture plates using a Biomek® FX. Each compound was assayed in duplicate for each donor. Each plate contained a dilution series of the TLR7/8 agonist resiquimod as standard and Column 11 contained 1 μl of 200 μM resiquimod (giving a 2 μM final concentration, used to define the approximate maximal response to resiquimod).
(§3) Blood samples from two human donors were collected into sodium heparin (10 U/ml). 25 ml volumes of whole blood were overlaid onto 15 mls Histopaque® in LEUCOSEP™ tubes which were centrifuged at 800 g for 20 min and the band at the plasma/histopaque interface carefully removed. The collected cells were centrifuged at 2500 rpm for 10 min and the pellet resuspended in 10 ml of media (RPMI 1640 (Low endotoxin) supplemented with 10% v/v foetal calf serum (FCS, low endotoxin) 100 U/ml penicillin G, 100 μg/ml streptomycin, 10 mM L-glutamine and 1× non-essential amino acids). A 1:20 dilution of the cells was prepared using trypan blue & the cells counted using a haemocytometer. The PBMCs were diluted to give a final concentration of 2×10^6/ml and 100 ul of this cells suspension was added to wells containing 1 μl of diluted test compound.
(§4) The cell preparations were incubated for 24 hr (37° C., 95% air, 5% CO2) after which a sample of the supernatant was removed using the Biomek® FX and assayed for both IFN-α and TNF-α using the MSD® (Mesoscale Discovery) electrochemiluminescence assay platform. The IFN-α assay was carried out similarly to that described above. The TNF-α assay was carried out as per kit instructions (Cat No K111BHB).
(§5) Cytokine released was expressed as a percentage of the 2 μM resiquimod control (column 11). This percentage was plotted against compound concentration and the pEC50 for the response determined by non-linear least squares curve fitting. For the IFN-α responses generally a 4 parameter logistic model was selected. For the TNF responses where a clear maximum response was obtained (i.e. a well defined plateau in the response was observed) then a 4 parameter model was generally used. If the upper asymptote of the curve wasn't well defined then the curve fitting was generally constrained to a maximal response of 100% (i.e. to the response to 2 μM resiquimod) or to the response of the highest concentration tested if this was greater than the resiquimod response. Some curves were bell shaped for one or both cytokines and the cytokine data on the down slope of the bell shaped response (i.e. concentrations above those giving the maximal response) were generally excluded from the fit, usually with the exception of the concentration immediately above the peak response. Curve fitting thus concentrated on the up slope of the dose response curve.

Test [1] has as its system Interferon-α. The experiment in a line: Induction of Interferon-α using cryopreserved human PBMCs. The format is cell-based. Conditions: PBMC, 24 h incubation, normalized to 1 uM resiquimod, read-out: mean pEC50 for induction of Interferon-α (converted). How it is done: Assay for the Induction of Interferon-α Using Cryopreserved Human Peripheral Blood Mononuclear Cells (PBMCs)
Compounds were dissolved in DMSO. Serial 2-fold dilutions with DMSO were prepared and 0.25 μl dispensed into 384-well clear Greiner polypropylene plates.
Blood samples of up to 200 ml were obtained from healthy human donors. Whole blood in 25 ml volumes was overlaid onto 15 ml Ficoll® gradients in Leucosep® tubes, and centrifuged at 1000 g for 20 min. Cells in the band at the plasma/Histopaque® interface were carefully removed and washed twice with PBS (centrifuged at 400 g for 5 min to harvest). The final pellet was resuspended in freezing medium (90% Heat-inactivated serum, 10% DMSO) to a cell concentration of 4×10^7 cells/ml. The resuspended cells were then cryopreserved (frozen) using a rate controlled freezer, and stored at −140° C. for up to 4 months.
Immediately prior to assay, vials of cryopreserved (frozen) PBMCs were thawed rapidly in a water bath at 37° C. A 1:10 dilution of the cells in trypan blue was prepared and counted. The PBMCs were then diluted in growth media [RPMI 1640 containing 10% fetal calf serum (invitrogen), Penicillin+[…] (Gibco cat. #25030-024, 1:50), L-Glutamine 2 mM, and 1000 units/ml recombinant human IFN-gamma (Preprotech catalogue #300-02)] to a density of 1×10^6 cells/ml, and 50 ul/well dispensed to 384-well clear Greiner polypropylene plates containing 0.25 μl DMSO or test compound in 0.25 μl DMSO. […] Plates were incubated for 24 h at 37° C. in 5% CO2.
A multi-isoform immunoassay was used to quantify IFN-α in PBMC supernatants. Rabbit polyclonal antibody against human IFN-α (catalogue number 31101, Stratech Scientific) was diluted 1:10000 in assay buffer (RPMI 1640 containing 10% fetal calf serum, Invitrogen) and 20 μl was added to each well of an MSD® (Meso-Scale® Discovery) single small-spot 384-well GAR (goat anti-rabbit antibody coated) plate.
The plate was incubated for 1 h at room temperature with vigorous shaking. Following three washes with PBS, 20 μl of cell supernatant were added to each well of the plate. The plate was then incubated for 1 h at room temperature with vigorous shaking. A pair of monoclonal antibodies to IFN-α (catalogue numbers 21100 and 21112, Stratech Scientific) were labelled with sulfo-TAG (MSD®), diluted 1:1000 in assay buffer and 20 μl added to each well of the plate. The plate was further incubated for 1 h at room temperature with vigorous shaking. Following three washes with PBS, 30 μl of ×2 T buffer (MSD®) was added to each well and the plate was read on an MSD® Sector 6000 plate reader.
Data were normalized to internal plate controls of 1 uM resiquimod (n=16) and DMSO (n=16). pEC50 values were derived by 4-parameter curve fit with IRLS in ActivityBase, from 11-point, two-fold serial dilution of test compounds.

The test system of a further test is IFN-α. The test is described as follows: Induction of Interferon-α using fresh human PBMCs. The format is cell-based. Conditions: PBMC, 24 hr incubation, relative to 2 μM resiquimod control, read-out: mean pEC50 for induction of IFN-α (converted). How it is done:
as §1, §2, §3, §4, §5

Test [2] concerns Interferon-α. The test is described as follows: Induction of Interferon-α following intranasal dosing in the mouse. In kind it is in vivo. To be noted: female BALB/c mice, serum 2 hours after dosing, ELISA. How it is done:
Assay for the Induction of Interferon-α Following Intranasal Dosing in the Mouse.
Compounds were dissolved in 0.2% Tween™ 80 in saline and administered intranasally (5 μl in total between the nostrils) to female BALB/c mice (n=6) under general anaesthesia. Animals were euthanased 2 hours after dosing and a terminal blood sample was taken and serum levels of Interferon-α measured using an ELISA assay.
In general terms: In an ELISA, binding on a coated surface is turned into a signal by an enzyme label.

The next test concerns IL-5. The test is described as follows: Allergen-driven cytokine assay using fresh human PBMCs from atopic volunteers (IL-5). In kind it is cell-based. Conditions: at 0.04 μM, compared to the allergen control; PBMCs from three allergic donors, Timothy Grass antigen. How it is done:
(§6) Allergen-Driven Cytokine Assay Using Fresh Human Peripheral Blood Mononuclear Cells (PBMCs) from Atopic Volunteers
(§7) An assay based on co-culture of atopic human donor derived peripheral blood mononuclear cells (PBMCs) with allergen and test compounds was developed. After 5-6 days culture, cell supernatants were assayed for a range of cytokines.
(§8) Each compound was assayed in triplicate at all concentrations.
(§9) Defibrinated human blood from volunteers known to be allergic to Timothy grass was centrifuged at 2500 rpm for 15 minutes. The upper layer of serum was collected and heat-inactivated at 56° C. for 30 minutes (HI-autologous serum). The lower layer of cells was resuspended in 50 ml PBS (+Ca+Mg), 25 ml diluted blood were overlaid onto 20 ml Lymphoprep in 50 ml tubes then centrifuged at 2500 rpm for 20 minutes at RT. The band at the serum/Lymphoprep interface was carefully removed. The collected cells were washed with PBS and re-suspended at 4×10^6/ml in growth medium with HI-autologous serum. PBMCs were seeded at 0.4×10^6 cells/well in flat-bottomed 96 well plates in the presence of 10 ug/ml Timothy Grass antigen (Alk Abello) and test compounds at appropriate concentrations in a total volume of 200 ul.
(§10) Plates were incubated at 37° C. in 5% CO2 for up to 6 days. The cell medium from each well was harvested and stored at −20° C. prior to analysis.

A further test deals with IL-13. The experiment in a line: Allergen-driven cytokine assay using fresh human PBMCs from atopic volunteers (IL-13). In kind it is cell-based. To be noted: at 0.04 μM, compared to the allergen control; PBMCs from three allergic donors, Timothy Grass antigen. How it is done:
as §6, §7, §8, §9, §10

On to `CCCCOc1nc(N)c2[nH]c(=O)n(CCCCCN3CCCCC3)c2n1` [Example 10, 6-Amino-2-(butyloxy)-9-[5-(1-piperidinyl)pentyl]-7,9-dihydro-8H-purin-8-one], for which the figures for the EC50 with TNF-α, in the test with Interferon-α [1] and with IFN-α were more than 1 µM, less than 3.16 µM and not above 0.01 µM, respectively.
The corresponding values for `CCCCOc1nc(N)c2[nH]c(=O)n(CCCCCN3CCCCCC3)c2n1` [Example 11, 6-Amino-2-(butyloxy)-9-[5-(hexahydro-1H-azepin-1-yl)pentyl]-7,9-dihydro-8H-purin-8-one] are more than 1 µM, less than 3.16 µM and not above 0.01 µM.
Regarding `CCCCOc1nc(N)c2[nH]c(=O)n(CCCCCN3CCCCCCC3)c2n1` [Example 12, 6-Amino-2-(butyloxy)-9-[5-(hexahydro-1(2H)-azocinyl)pentyl]-7,9-dihydro-8H-purin-8-one], the figures for the EC50 in the test on TNF-α, with Interferon-α [1] and in the test with IFN-α were more than 1 µM, less than 3.16 µM and not above 0.01 µM, respectively.
Taken in the same sequence, the figures for `CCCCOc1nc(N)c2[nH]c(=O)n(CCCCCCN3CCCC3)c2n1` [Example 13, 6-Amino-2-(butyloxy)-9-[6-(1-pyrrolidinyl)hexyl]-7,9-dihydro-8H-purin-8-one] were not below 0.316 µM, less than 3.16 µM and not above 0.001 µM.
The corresponding values for `CCCCOc1nc(N)c2[nH]c(=O)n(CCCCCCN3CCCCC3)c2n1` [Example 14, 6-Amino-2-(butyloxy)-9-[6-(1-piperidinyl)hexyl]-7,9-dihydro-8H-purin-8-one] are more than 1 µM, less than 3.16 µM and not above 0.01 µM.
With `CCCCOc1nc(N)c2[nH]c(=O)n(CCCCCCN3CCCCCC3)c2n1` [Example 15, 6-Amino-2-(butyloxy)-9-[6-(hexahydro-1H-azepin-1-yl)hexyl]-7,9-dihydro-8H-purin-8-one], the EC50 with TNF-α was not below 0.316 µM; with Interferon-α [1] it was less than 3.16 µM; with IFN-α it was not above 0.001 µM.
In the case of `CCCCNc1nc(N)c2[nH]c(=O)n(CCCCN3CCCCCC3)c2n1` [Example 18, 6-Amino-2-(butylamino)-9-[4-(hexahydro-1H-azepin-1-yl)butyl]-7,9-dihydro-8H-purin-8-one], the EC50 in the test on TNF-α is more than 1 µM; in the test on Interferon-α [1], less than 3.16 µM; with IFN-α it was not above 0.01 µM.
Regarding `CCC[C@H](C)Oc1nc(N)c2[nH]c(=O)n(CCCCN3CCCCC3)c2n1` [Example 20, 6-Amino-2-{[(1S)-1-methylbutyl]oxy}-9-[4-(1-piperidinyl)butyl]-7,9-dihydro-8H-purin-8-one], the EC50 in the test on TNF-α was not below 0.316 µM; in the test with Interferon-α [1], less than 3.16 µM; with IFN-α, not above 0.001 µM.
For the molecule `CCC[C@H](C)Oc1nc(N)c2[nH]c(=O)n(CCCCN3CCCCCC3)c2n1` [Example 21, 6-Amino-9-[4-(hexahydro-1H-azepin-1-yl)butyl]-2-{[(1S)-1-methylbutyl]oxy}-7,9-dihydro-8H-purin-8-one], the EC50 with TNF-α was not below 0.316 µM; in the test with Interferon-α [1], less than 3.16 µM; in the test with IFN-α it was not above 0.001 µM. The “mean serum levels of Interferon-α” value with Interferon-α [2] amounted to 20326 pg/mL.
Take `CCC[C@H](C)Oc1nc(N)c2[nH]c(=O)n(CCCCCN3CCCCC3)c2n1` [Example 22, 6-Amino-2-{[(1S)-1-methylbutyl]oxy}-9-[5-(1-piperidinyl)pentyl]-7,9-dihydro-8H-purin-8-one]: in the test on IL-5, the “reduction of production of Th2 cytokine IL-5” value is recorded as not below 50%. In addition, the EC50 in the test with TNF-α is not below 0.316 µM; in the test with Interferon-α [1], less than 3.16 µM; with IFN-α, not above 0.001 µM. Further, the “mean serum levels of Interferon-α” value with Interferon-α [2] turned out to be 21029 pg/mL. For the same molecule, the “reduction of production of Th2 cytokine IL-13” value in the test on IL-13 is not below 50%.
Consider `CCC[C@H](C)Oc1nc(N)c2[nH]c(=O)n(CCCCCN3CCCCCC3)c2n1` [Example 23, 6-Amino-9-[5-(hexahydro-1H-azepin-1-yl)pentyl]-2-{[(1S)-1-methylbutyl]oxy}-7,9-dihydro-8H-purin-8-one], for which the figures for the EC50 in the test on TNF-α, in the test on Interferon-α [1] and in the test with IFN-α were not below 0.316 µM, less than 3.16 µM and not above 0.001 µM, respectively.
